This passage reports EC50 results from US12049439B2 (OrsoBio, Inc., priority 2018, dated 2024).

pEC50: −log10 of the molar value.

This assay deals with PC-3 cells. The assay is described as follows: PC-3 Oxygen Rate Consumption (OCR) Assay. It is filed as cell-based. The note with it: Homo sapiens, 0.05 h, medium with 2% FBS, OCR at 3-min post-injection normalized to % increase over DMSO-treated cells, concentration for half-maximal OCR increase, read-out: EC50-PC3-OCR-FBS-3min. A digest of the protocol:
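PC-3 cells seeded a day before, equilibrated 1 h in XF medium with 10 mM glucose, 1 mM pyruvate, 2% FBS, non-CO2 at 37 °C. Compound injected after basal OCR reads; OCR at 3 min post-injection normalized as % increase over DMSO, EC50 = half-maximal increase; six replicates.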
In the case of `O=C(NC12CC(C(F)(F)F)(C1)C2)c1cc(C(F)(F)F)ccc1NS(=O)(=O)C1COC1` [Example 73, 2-(oxetane-3-sulfonamido)-5-(trifluoromethyl)-N-(3-(trifluoromethyl)bicyclo[1.1.1]pentan-1-yl)benzamide], the pEC50 (usually −log10 of the EC50, conventionally taken in molar units) was 5.58.

Consider `CS(=O)(=O)c1ccc(S(=O)(=O)Nc2cc(S(F)(F)(F)(F)F)ccc2C(=O)NC23CC(C2)C3)cc1` [Example 155, N-(bicyclo[1.1.1]pentan-1-yl)-2-((4-(methylsulfonyl)phenyl)sulfonamido)-4-(pentafluoro-λ^6-sulfanyl)benzamide], for which the negative-log EC50 (pEC50) was 5.23.

Regarding `CC(C)S(=O)(=O)Nc1cc(C(F)(F)F)ccc1C(=O)NC12CCC(C#N)(CC1)CC2` [Example 57, N-(4-cyanobicyclo[2.2.2]octan-1-yl)-2-((1-methylethyl)sulfonamido)-4-(trifluoromethyl)benzamide], the pEC50 is 5.09.

For the compound `CS(=O)(=O)Nc1ccc(C(F)(F)F)cc1C(=O)NC12CC(C#N)(C1)C2` [Example 165, N-(3-cyanobicyclo[1.1.1]pentan-1-yl)-2-(methylsulfonamido)-5(trifluoromethyl)benzamide], the negative logarithm of the EC50 (pEC50) is 4.68.

On to `O=C(NC12CCC(C(F)(F)F)(CC1)CC2)c1ccc(OC(F)(F)F)cc1NS(=O)(=O)C1CCS(=O)(=O)CC1` [Example 240, 2-((1,1-dioxidotetrahydro-2H-thiopyran)-4-sulfonamido)-4-(trifluoromethoxy)-N-(4-(trifluoromethyl)bicyclo[2.2.2]octan-1-yl)benzamide], for which the pEC50 is 5.52.

`CS(=O)(=O)N1C2CCC1CC(NC(=O)c1ccc(F)cc1NS(=O)(=O)CCC(F)(F)F)C2` (stereo not drawn) [Example 217, 4-fluoro-N-(8-(methylsulfonyl)-8-azabicyclo[3.2.1]octan-3-yl)-2-((3,3,3-trifluoropropyl)sulfonamido)benzamide]: the pEC50 was 3.95.

Turning to `CS(=O)(=O)Nc1ccc(C(F)(F)F)cc1C(=O)NC12CC3CC(CC(C#N)(C3)C1)C2` [Example 175, N-((1R,5R)-3-cyanoadamantan-1-yl)-2-(methylsulfonamido)-5-(trifluoromethyl)benzamide], the pEC50 is 5.22.

With `CC(C)(C)S(=O)(=O)Nc1cc(C(F)(F)F)ccc1C(=O)NC12CCC(C#N)(CC1)CC2` [Example 114, N-(4-cyanobicyclo[2.2.2]octan-1-yl)-2-((1,1-dimethylethyl)sulfonamido)-4-(trifluoromethyl)benzamide], the negative-log EC50 (pEC50) is 5.46.

For `CC1(S(=O)(=O)Nc2cc(C(F)(F)F)ccc2C(=O)NC23CC(C#N)(C2)C3)CC1` [Example 64, N-(3-cyanobicyclo[1.1.1]pentan-1-yl)-2-((1-methylcyclopropane)-1-sulfonamido)-4-(trifluoromethyl)benzamide], the negative-log EC50 (pEC50) was 5.28.

Turning to `CS(=O)(=O)c1ccc(S(=O)(=O)Nc2cc(F)ccc2C(=O)NC23CC(F)(C2)C3)cc1` [Example 21, 4-fluoro-N-(3-fluorobicyclo[1.1.1]pentan-1-yl)-2-((4-(methylsulfonyl)phenyl)sulfonamido)benzamide], the pEC50 was 4.41.

Consider `N#CC12CC(NC(=O)c3ccc(C(F)(F)F)cc3NS(=O)(=O)c3c(Cl)cc(Cl)cc3Cl)(C1)C2` [Example 40, N-(3-cyanobicyclo[1.1.1]pentan-1-yl)-2-((2,4,6-trichlorophenyl)sulfonamido)-4-(trifluoromethyl)benzamide], for which the pEC50 was 5.18.

`N#CC1(S(=O)(=O)Nc2ccc(F)cc2C(=O)NC23CC(C(F)(F)F)(C2)C3)CC1` [Example 242, 2-((1-cyanocyclopropane)-1-sulfonamido)-5-fluoro-N-(3-(trifluoromethyl)bicyclo[1.1.1]pentan-1-yl)benzamide]: the negative-log EC50 (pEC50) is 5.36.

On to `N#Cc1ccc(NS(=O)(=O)C2CC2)c(C(=O)NC23CCC(C#N)(CC2)CC3)c1` [Example 124, 5-cyano-N-(4-cyanobicyclo[2.2.2]octan-1-yl)-2-(cyclopropanesulfonamido)benzamide], for which the pEC50 was 4.10.

Turning to `CS(=O)(=O)Nc1ccc(Cl)cc1C(=O)NC12CCC(C#N)(CC1)CC2` [Example 213, 5-chloro-N-(4-cyanobicyclo[2.2.2]octan-1-yl)-2-(methylsulfonamido)benzamide], the pEC50 was 4.09.

As for `CC(C)(C)S(=O)(=O)Nc1ccc(Cl)cc1C(=O)NC12CC(c3ccccc3)(C1)C2` [Example 83, 5-chloro-2-((1,1-dimethylethyl)sulfonamido)-N-(3-phenylbicyclo[1.1.1]pentan-1-yl)benzamide], the negative-log EC50 (pEC50) was 5.27.

In the case of `CS(=O)(=O)Nc1cc(OC(F)(F)F)ccc1C(=O)NC12CCC(C#N)(CC1)CC2` [Example 203, N-(4-cyanobicyclo[2.2.2]octan-1-yl)-2-(methylsulfonamido)-4-(trifluoromethoxy)benzamide], the negative-log EC50 (pEC50) was 4.64.

For the compound `CSCCOc1ccc(S(=O)(=O)Nc2cc(C(F)(F)F)ccc2C(=O)NC23CC(C(F)(F)F)(C2)C3)cc1` [Example 113, 2-((4-(2-(methylthio)ethoxy)phenyl)sulfonamido)-4-(trifluoromethyl)-N-(3-(trifluoromethyl)bicyclo[1.1.1]pentan-1-yl)benzamide], the pEC50 is 6.16.

For `CC(C)(C)S(=O)(=O)c1ccc(S(=O)(=O)Nc2cc(F)ccc2C(=O)NC23CC(C#N)(C2)C3)cc1` [Example 153, 2-((4-(tert-butylsulfonyl)phenyl)sulfonamido)-N-(3-cyanobicyclo[1.1.1]pentan-1-yl)-4-fluorobenzamide], the negative-log EC50 (pEC50) was 4.97.

With `CN(C)S(=O)(=O)Nc1ccc(S(F)(F)(F)(F)F)cc1C(=O)NC12CCC(C#N)(CC1)CC2` [Example 205, N-(4-cyanobicyclo[2.2.2]octan-1-yl)-2-((N,N-dimethylsulfamoyl)amino)-5-(pentafluoro-λ^6-sulfanyl)benzamide], the pEC50 is 5.92.

Take `CS(=O)(=O)Nc1cc(Br)ccc1C(=O)NC12CCC(C#N)(CC1)CC2` [Example 194, 4-bromo-N-(4-cyanobicyclo[2.2.2]octan-1-yl)-2-(methylsulfonamido)benzamide]: the pEC50 was at most 4.30.

On to `O=C(NC12CC(c3ccccc3)(C1)C2)c1ccccc1NS(=O)(=O)c1ccc(-n2ccnc2)cc1` [Example 36, 2-((4-(1H-imidazol-1-yl)phenyl)sulfonamido)-N-(3-phenylbicyclo[1.1.1]pentan-1-yl)benzamide], for which the pEC50 was at most 4.70.

As to `N#CC12CCC(NC(=O)c3cc(C(F)(F)F)ccc3NS(=O)(=O)N3CC(OC(F)F)C3)(CC1)CC2` [Example 224, N-(4-cyanobicyclo[2.2.2]octan-1-yl)-2-((3-(difluoromethoxy)azetidine)-1-sulfonamido)-5-(trifluoromethyl)benzamide], the negative-log EC50 (pEC50) is 5.62.

Take `CN(C)S(=O)(=O)Nc1ccc(C(F)(F)F)cc1C(=O)NC12CC(C#N)(C1)C2` [Example 244, N-(3-cyanobicyclo[1.1.1]pentan-1-yl)-2-((N,N-dimethylsulfamoyl)amino)-5-(trifluoromethyl)benzamide]: the pEC50 was 5.12.

For the compound `CC(C)(C)S(=O)(=O)Nc1cc(C#N)ccc1C(=O)NC12CC(c3ccccc3)(C1)C2` [Example 98, 4-cyano-2-((1,1-dimethylethyl)sulfonamido)-N-(3-phenylbicyclo[1.1.1]pentan-1-yl)benzamide], the pEC50 is 5.70.

Take `CS(=O)(=O)c1ccc(S(=O)(=O)Nc2cc(C(F)(F)F)ccc2C(=O)NC23CCC(F)(CC2)CC3)cc1` [Example 9, N-(4-fluorobicyclo[2.2.2]octan-1-yl)-2-((4-(methylsulfonyl)phenyl)sulfonamido)-4-(trifluoromethyl)benzamide]: the pEC50 was 5.25.

For `CC1(S(=O)(=O)Nc2cc(C(F)(F)F)ccc2C(=O)NC23CC(C2)C3)CC1` [Example 66, N-(bicyclo[1.1.1]pentan-1-yl)-2-((1-methylcyclopropane)-1-sulfonamido)-4-(trifluoromethyl)benzamide], the negative-log EC50 (pEC50) is 5.08.

For the compound `N#CC12CCC(NC(=O)c3cc(C(F)(F)F)ccc3NS(=O)(=O)c3ccccc3)(CC1)CC2` [Example 122, N-(4-cyanobicyclo[2.2.2]octan-1-yl)-2-(phenylsulfonamido)-5-(trifluoromethyl)benzamide], the negative-log EC50 (pEC50) was 5.82.

In the case of `CCS(=O)(=O)c1ccc(S(=O)(=O)Nc2cc(C(F)(F)F)ccc2C(=O)NC23CC(C2)C3)cc1` [Example 27, N-(bicyclo[1.1.1]pentan-1-yl)-2-((4-(ethylsulfonyl)phenyl)sulfonamido)-4-(trifluoromethyl)benzamide], the pEC50 was 5.35.

As for `CCCCS(=O)(=O)Nc1ccc(C(F)(F)F)cc1C(=O)NC12CCC(C#N)(CC1)CC2` [Example 127, 2-(butylsulfonamido)-N-(4-cyanobicyclo[2.2.2]octan-1-yl)-5-(trifluoromethyl)benzamide], the pEC50 was 5.62.

For `Cc1ccc(C(=O)NC23CC(C(F)(F)F)(C2)C3)c(NS(=O)(=O)C(C)C)c1` [Example 61, 4-methyl-2-((1-methylethyl)sulfonamido)-N-(3-(trifluoromethyl)bicyclo[1.1.1]pentan-1-yl)benzamide], the pEC50 was at most 4.00.

With `Cc1ncc(S(=O)(=O)Nc2cc(C(F)(F)F)ccc2C(=O)NC23CCC(C#N)(CC2)CC3)s1` [Example 76, N-(4-cyanobicyclo[2.2.2]octan-1-yl)-2-((2-methylthiazole)-5-sulfonamido)-4-(trifluoromethyl)benzamide], the pEC50 is 5.04.

In the case of `CCS(=O)(=O)Nc1cc(C(F)(F)F)ccc1C(=O)NC12CCC(C#N)(CC1)CC2` [Example 133, N-(4-cyanobicyclo[2.2.2]octan-1-yl)-2-(ethylsulfonamido)-4-(trifluoromethyl)benzamide], the pEC50 was 4.83.

Regarding `CS(=O)(=O)Nc1cc(Cl)ccc1C(=O)NC12CCC(C#N)(CC1)CC2` [Example 214, 4-chloro-N-(4-cyanobicyclo[2.2.2]octan-1-yl)-2-(methylsulfonamido)benzamide], the pEC50 is 4.58.
